Reference: US4791139A, “Diphenyl ether derivatives and their use as insecticides” (Imperial Chemical Industries PLC, priority 1986, dated 1988)

Columns and labels:
Format in all cases: in vivo
[1] = system: Tetranychus urticae (spider mites - adult); assay: Contact test, spider mites - adult (TUa), French bean leaf; conditions: 72 h, 3 days, read-out: TUA grading of mortality
In short: (§1)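 Compound dissolved in acetone and diluted in water with 0.1% SYNPERONIC NX wetting agent to 100–500 ppm. Pests held on host plant or food medium, with pests and/or medium treated. Mortality scored 1–7 days after treatment.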

[2] = system: Meloidogyne incognita (Tomato root knot eelworm - larvae); assay: Residual test, Tomato root knot eelworm - larvae (MI), Semi in-vitro; conditions: 168 h, application rate is half that recorded, 7 days, read-out: MI grading of mortality; for mortality at 250 µg/mL: rate column 500 ppm
Protocol: The activity of the Product was determined using a variety of insect pests. The Product was used in the form of liquid preparations containing from 100 to 500 parts per million (ppm) by weight of the Product. The preparations were made by dissolving the Product in acetone and diluting the solutions with water containing 0.1% by weight of a wetting agent sold under the trade name "SYNPERONIC" NX until the liquid preparations contained the required concentration of the Product.
The test procedure adopted with regard to each pest was basically the same and comprised supporting a number of the pests on a medium which was usually a host plant or a foodstuff on which the pests feed, and treating either or both the pests and the medium with the preparations. The mortality of the pests was then assessed at periods usually varying from one to seven days after the treatment.
The results of the tests are given in Table III for each of the Products, at the rate in parts per million given in the second column as a grading of mortality designated as A, B or C wherein A indicates 80-100% mortality or knockdown (70-100% for Meloidogyne incognita), B indicates 50-79% mortality knockdown or knockdown (50-69% for Meloidogyne incognita) and C indicates less than 50% mortality or knockdown.

[3] = system: Musca domestica (houseflies - adults); assay: Contact test, houseflies - adults (MD), Cotton wool/sugar; conditions: 24 h, 1 day, read-out: MD grading of mortality
In short: as §1

[4] = system: Blattella germanica (cockroach nymphs); assay: Residual test, cockroach nymphs (BG), Plastic pot; conditions: 72 h, 3 days, read-out: BG grading of mortality
In short: as §1

Myzus persicae (aphids) = assay: Contact test, aphids (MP), Chinese Cabbage leaf; conditions: 72 h, 3 days, read-out: MP grading of mortality
In short: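 Aphids on a host plant and/or the plant itself were treated with 100–500 ppm of product, applied from acetone diluted in water containing 0.1% SYNPERONIC NX wetting agent. Mortality was scored usually one to seven days after treatment.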

[5] = system: Musca domestica (houseflies - adults); assay: Knockdown test, houseflies - adults (MD/KD), Cotton wool/sugar; conditions: 4 hours, read-out: MD/KD grading of knockdown
In short: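 Product was dissolved in acetone and diluted with water containing 0.1% wetting agent to 100–500 ppm. The flies and/or their food medium were treated with the preparation. Mortality was scored 1–7 days after treatment, with an additional knockdown assessment for houseflies.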

[6] = system: Nilaparvata lugens (brown plant hopper - nymphs); assay: Contact test, brown plant hopper - nymphs (NL), Rice plant; conditions: 72 h, 3 days, read-out: NL grading of mortality
In short: as §1

[7] = system: Tetranychus urticae (spider mites - ova); assay: Contact test, spider mites - ova (TUe), French bean leaf; conditions: 144 h, 6 days, read-out: TUE grading of mortality
In short: as §1

[8] = system: Diabrotica balteata (rootworm larvae); assay: Residual test, rootworm larvae (DB), Filter paper/maize seed; conditions: 72 h, 3 days, read-out: DB grading of mortality
In short: as §1

[9] = system: Spodoptera exigua (lesser army worm - larvae); assay: Residual test, lesser army worm - larvae (SP), Cotton leaf; conditions: 72 h, 3 days, read-out: SP grading of mortality
In short: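 Compound dissolved in acetone and diluted in water with 0.1% Synperonic NX wetting agent to 100–500 ppm. Pests on host plant or food, with pests and/or medium treated. Mortality assessed 1–7 days after treatment and graded A (80–100%), B (50–79%) or C (<50%).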

[10] = system: Heliothis virescens (tobacco budworm - larvae); assay: Residual test, tobacco budworm - larvae (HV), Cotton leaf; conditions: 72 h, read-out: HV grading of mortality
In short: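 Products applied as acetone solutions diluted in water with 0.1% wetting agent, at 100–500 ppm; pests on host plant or food, with pests and/or medium treated. Mortality or knockdown scored 1–7 days after treatment and graded A (80–100%), B (50–79%) or C (<50%).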

Row | SMILES | mortality at 500 ppm [1] | mortality at 250 µg/mL [2] | mortality at 500 ppm [3] | mortality at 500 ppm [4] | mortality at 500 ppm (Myzus persicae (aphids)) | pest or weed control at 500 ppm [5] | mortality at 500 ppm [6] | mortality at 500 ppm [7] | mortality at 500 ppm [8] | mortality at 500 ppm [9] | mortality at 500 ppm [10] | further results
1 | CCOc1ccc(C(=CCCc2cccc(Oc3ccccc3)c2)C(F)(F)F)cc1F [Compound 50, 1,1,1-Trifluoro-2-(3-fluoro-4-ethoxyphenyl)-5-(3-phenoxyphenyl)-pent-2-ene] | – | – | – | – | – | – | – | – | – | – | – | mortality at 450 ppm ([1]; 450 ppm): < 50%; mortality at 225 µg/mL ([2]; rate column 450 ppm): < 50%; mortality at 450 ppm ([3]; 450 ppm): 80 to 100%; mortality at 450 ppm ([4]; 450 ppm): 80 to 100%; mortality at 450 ppm (Myzus persicae (aphids); 450 ppm): 80 to 100%; pest or weed control at 450 ppm ([5]; 450 ppm): 80 to 100%; mortality at 450 ppm ([6]; 450 ppm): < 50%; mortality at 450 ppm ([7]; 450 ppm): < 50%; mortality at 450 ppm ([8]; 450 ppm): 80 to 100%; mortality at 450 ppm ([9]; 450 ppm): 80 to 100%; mortality at 450 ppm [10]: 80 to 100%
2 | CCOc1c(F)cc(C(=CCCc2cccc(Oc3ccccc3)c2)C(F)(F)F)cc1F [Compound 51, 1,1,1-Trifluoro-2-(3,5-difluoro-4-ethoxyphenyl)-5-(3-phenoxyphenyl)pent-2-ene] | < 50% | < 50% | 80 to 100% | 80 to 100% | 80 to 100% | 80 to 100% | < 50% | < 50% | 80 to 100% | 80 to 100% | 80 to 100% | –
3 | CC1(C)Oc2ccc(C(CCCc3cccc(Oc4ccccc4)c3)C(F)(F)F)cc2O1 (centres unmarked) [Compound 58, 1,1,1-Trifluoro-2-[3,4-(dimethylmethylenedioxy)phenyl]-5-(3-phenoxyphenyl)pentane] | < 50% | < 50% | 80 to 100% | 80 to 100% | 50 to 79% | 80 to 100% | 80 to 100% | 80 to 100% | 80 to 100% | 50 to 79% | < 50% | –
4 | CC1Oc2ccc(C(CCCc3cccc(Oc4ccccc4)c3)C(F)(F)F)cc2O1 (centres unmarked) [Compound 61, 1,1,1-Trifluoro-2-[3,4-(methylmethylenedioxy)-phenyl]-5-(3-phenoxyphenyl)pentane] | < 50% | < 50% | 80 to 100% | 80 to 100% | 80 to 100% | 80 to 100% | 80 to 100% | < 50% | 80 to 100% | 80 to 100% | 80 to 100% | –
5 | CCOc1ccc(C(=CC=Cc2cccc(Oc3ccccc3)c2)C(F)F)cc1 [Compound 65, 1,1-Difluoro-2-(4-ethoxyphenyl)-5-(3-phenoxyphenyl)penta-2,4-diene] | < 50% | < 50% | < 50% | < 50% | < 50% | < 50% | < 50% | < 50% | < 50% | < 50% | < 50% | –
6 | CCOc1c(F)cc(C(=CC=Cc2ccc(F)c(Oc3ccccc3)c2)C(F)(F)F)cc1F [Compound 67, 1,1,1-Trifluoro-2-(3,5-difluoro-4-ethoxyphenyl)-5-(4-fluoro-3-phenoxyphenyl)penta-2,4-diene] | < 50% | < 50% | < 50% | < 50% | 80 to 100% | < 50% | 80 to 100% | < 50% | 80 to 100% | 80 to 100% | 80 to 100% | –
7 | FC(F)(F)Oc1ccc(C(=CC=Cc2cccc(Oc3ccccc3)c2)C(F)(F)Cl)cc1 [Compound 70, 1,1-Difluoro-1-chloro-2-(4-trifluoromethoxyphenyl)-5-(3-phenoxyphenyl)penta-2,4-diene] | < 50% | 50 to 69% | < 50% | < 50% | < 50% | < 50% | < 50% | < 50% | < 50% | < 50% | < 50% | –
8 | Fc1cc(Br)c(C(=CC=Cc2cccc(Oc3ccccc3)c2)C(F)(F)F)c(F)c1OC(F)(F)F [Compound 74, 1,1,1-Trifluoro-2-(2-bromo-4,6-difluoro-5-trifluoromethoxyphenyl)-5-(3-phenoxyphenyl)penta-2,4-diene] | 50 to 79% | < 50% | < 50% | < 50% | < 50% | < 50% | < 50% | < 50% | < 50% | < 50% | < 50% | –
9 | Fc1cc(C(=CC=Cc2cccc(Oc3ccccc3)c2)C(F)(F)F)cc(F)c1OC(F)(F)F [Compound 75, 1,1,1-Trifluoro-2-(3,5-difluoro-4-trifluoromethoxyphenyl)-5-(3-phenoxyphenyl)penta-2,4-diene] | < 50% | < 50% | < 50% | < 50% | < 50% | < 50% | < 50% | < 50% | < 50% | < 50% | < 50% | –
10 | Fc1ccc(C=CC=C(c2ccc(OC(F)(F)F)cc2)C(F)(F)Cl)cc1Oc1ccccc1 [Compound 76, 1,1-Difluoro-1-chloro-2-(4-trifluoromethoxyphenyl)-5-(4-fluoro-3-phenoxyphenyl)penta-2,4-diene] | < 50% | < 50% | < 50% | < 50% | < 50% | < 50% | 80 to 100% | < 50% | 80 to 100% | < 50% | < 50% | –
11 | Fc1ccc(C=CC=C(c2ccc(OC(F)(F)F)cc2)C(F)F)cc1Oc1ccccc1 [Compound 77, 1,1-difluoro-2-(4-trifluoromethoxyphenyl)-5-(4-fluoro-3-phenoxyphenyl)penta-2,4-diene] | < 50% | 50 to 69% | < 50% | < 50% | 80 to 100% | < 50% | 80 to 100% | < 50% | 80 to 100% | 80 to 100% | 80 to 100% | –
12 | CCOc1ccc(C(CC=Cc2cccc(Oc3ccccc3)n2)C(F)(F)F)cc1 (centres unmarked) [Compound 99, 1,1,1-Trifluoro-2-(4-ethoxyphenyl)-5-(6-phenoxypyrid-2-yl)pent-4-ene] | < 50% | < 50% | 80 to 100% | < 50% | 50 to 79% | 80 to 100% | < 50% | < 50% | < 50% | 50 to 79% | 80 to 100% | –
13 | CCOc1ccc(C(=CC=Cc2cccc(Oc3ccccc3)n2)C(F)(F)F)cc1 [Compound 100, 1,1,1-Trifluoro-2-(4-ethoxyphenyl)-5-(6-phenoxypyrid-2-yl)penta-2,4-diene] | < 50% | < 50% | < 50% | < 50% | < 50% | 50 to 79% | 50 to 79% | < 50% | < 50% | < 50% | < 50% | –
